Assay results reported in ChEMBL document CHEMBL1141247, “Hydroxyalkenylresorcinols from Stylogyne turbacensis” (J Nat Prod, 2007).

Tests used:
NCI-H460 [1] = test: Cytotoxicity against human NCI-H460; format: functional, cell-based
Trypanosoma cruzi = test: Antitrypanosomal activity against Trypanosoma cruzi; format: functional, organism-based
Leishmania donovani = test: Antileishmanial activity against Leishmania donovani; format: functional, organism-based
Vero = test: Cytotoxicity against […] Vero cells by MTT assay; format: cell-based, Homo sapiens; settings: Chlorocebus sabaeus
MCF7 = test: Cytotoxicity against human MCF7 cells; format: functional, cell-based
NCI-H460 [2] = test: Cytotoxicity against human NCI-H460 at 20 ug/ml; format: functional

Row | SMILES | IC50 (NCI-H460 [1]) [µM] | IC50 (Trypanosoma cruzi) [µM] | IC50 (Leishmania donovani) [µM] | IC50 (Vero) [µM] | IC50 (MCF7) [µM] | inhibition at 20 µg/mL (NCI-H460 [2]) [%]
1 | CCCCC/C=C\C/C=C\CCCCCCCc1cc(O)cc(O)c1 | 8.7 | 30 | 0.6 | 148 | 8.7 | –
2 | CCCCCC[C@H](O)C/C=C\CCCCCCCc1cc(O)cc(O)c1 | 16 | 138 | 7 | 76 | 14 | –
3 | CC/C=C\C[C@@H](O)CC/C=C\CCCCCCCc1cc(O)cc(O)c1 | > 10 | 22 | 3 | 30 | 22 | < 50
4 | CCCCC/C=C\C/C=C\CCCCCCCc1cc(OC(C)=O)cc(OC(C)=O)c1 | – | 117 | – | 124 | – | –
5 | CC/C=C\C/C=C\C/C=C\CCCCCCCc1cc(OC(C)=O)cc(OC(C)=O)c1 | – | 117 | – | 138 | – | –
6 | CCCCCC[C@@H](C/C=C\CCCCCCCc1cc(OC(C)=O)cc(OC(C)=O)c1)OC(C)=O | – | 102 | – | 75 | – | –
7 | CC/C=C\C[C@H](CC/C=C\CCCCCCCc1cc(OC(C)=O)cc(OC(C)=O)c1)OC(C)=O | – | 107 | – | 82 | – | –
8 | CC/C=C\C/C=C\C/C=C\CCCCCCCc1cc(O)cc(O)c1 | 8.7 | 25 | 0.6 | 104 | 8.7 | –
9 | C[C@@H]1[C@H](O)[C@@H](C)/C=C/C=C/C=C/C=C/C=C/C=C/C=C/[C@H](O[C@@H]2O[C@H](C)[C@@H](O)[C@H](N)[C@@H]2O)C[C@@H]2O[C@](O)(C[C@@H](O)C[C@@H](O)[C@H](O)CC[C@@H](O)C[C@@H](O)CC(=O)O[C@H]1C)C[C@H](O)[C@H]2C(=O)O [AMPHOTERICIN B] | – | – | 0.09 | – | – | –
10 | CC1CS(=O)(=O)CCN1/N=C/c1ccc([N+](=O)[O-])o1 (stereo unspecified) [NIFURTIMOX] | – | 6 | – | – | – | –
